The structures appear in SMILES notation. Several values for one entry are separate records, joined by “and”; a condition that tells them apart may be missing. Equal entries are not always repeated. Where two headings read alike, the source gives them in different places.

One data set concerns the target human CB1. Conditions: one per compound, cited from earlier work.
Data set [1] addresses T1, human CB1 receptor (Homo sapiens, UniProt P21554). The format is biochemical. Particulars: in words.
The target of data set [2] is T1, human CB1 receptor. As to the kind of experiment: biochemical. As for the experimental part: Ten compound concentrations equally spaced on a log scale (10^–3 to 10^–9 M) were incubated in triplicate with membrane preparations from CHO-K1 cells expressing the human CB1 receptor (5 μg per well) (Perkin Elmer, cat. no. ES-110-M400UA) in an assay buffer containing 50 mM Tris-HCl, pH = 7.4, 1 mM EGTA, 3 mM MgCl2, 100 mM NaCl and 30 μM GDP) in the presence of 0.08 nM [^35S]GTPγS (specific activity: 1250 Ci/mmole, Perkin Elmer). Non-specific binding was determined with 100 μM of unlabeled GTPγS. […] The final DMSO concentration in the assay was 5%. The reaction mixture was incubated for 90 min. at 30°C . Next, the samples were deposited under vacuum with the FilterMate Harvester® (Perkin Elmer, USA) onto Unifilter® GF/B Plates (Perkin Elmer, USA) presoaked with wash buffer (50 mM Tris-HCl, pH = 7.4). The samples were then rapidly washed with 2 ml of wash buffer. Filter plates were dried for 30 min. at 50 °C and 40 μL of MicroScint PS (Perkin Elmer, USA) scintillation fluid was added to each well. Radioactivity was counted in a Trilux MicroBeta^2 counter (Perkin Elmer, USA). Data were analyzed with GraphPad Prism 5.0 software. Curves were fitted with three-parameter non-linear regression model.

The target in data set [3] is T1, human CB1 receptor. As to the kind of experiment: biochemical. It counts as binding. More on the design: purchased Merck HTS019M; host or cells: Chem-1 cells. The source says: Compounds selected for the in vitro binding assay from the first iteration of VS were purchased via MolPort, SIA, Riga, Latvia and Biopurify Phytochemicals Ltd., Chengdu, China. Compounds from the second iteration were purchased from MolPort, SIA, Riga, Latvia and Chemspace, SIA, Riga, Latvia (Supporting Information S3). […] Membranes from cells overexpressing the human CB1 receptor (ChemiScreen CB1 Cannabinoid Receptor Membrane Preparation, cat. no. HTS019M) as well as MgCl2, CaCl2, Trizma Base, NaCl, polyethylenimine (PEI) and dimethyl sulfoxide (DMSO) were purchased from Merck (USA). Bovine serum albumin (BSA) was obtained from Pol-Aura (Poland).
Compounds were dissolved in 50% DMSO and added to the reaction mixture at 10 concentrations equally spaced on a log scale (10^–10 to 10^–4.5 M). The final DMSO concentration was 5%. […] The reaction mixture (500 μL) was incubated for 1.5 h at 30°C . Before harvesting, Whatman GF/B Filter Paper (Brandel, USA) was presoaked with 0.33% PEI buffer for 30 min. and then washed with 2 ml of 50 mM Tris-HCl buffer (pH = 7.4) and 0.5% BSA to minimize non-specific binding. The reaction was terminated by depositing the samples onto GF/B filter paper with the Brandel M-24 Cell Harvester (Brandel, USA). Samples were then rapidly washed 3 times with 2 ml of ice-cold wash buffer (50 mM Tris-HCl pH 7.4, 500 mM NaCl) to separate the bound radioligand from free. Filters were then air-dried for 1 h at 60°C . After drying, filter discs were placed on a flexible 24-well plate and 500 μL of EcoScint-20 scintillant was added to each well. Plates were counted (2 min. per well) in a Trilux MicroBeta^2 2450 scintillation counter (Perkin Elmer, USA). Data were analyzed with GraphPad Prism 5.0 software.[89]

On the set-up of data set [4]: method as in MedChemExpress product data sheet. Conditions: ref MedChemExpress product data sheet, listed as Flupentixol dihydrochloride, cited from earlier work.
The mark [5] stands for this setting: CB1 antagonists/inverse agonists, Table S9, ref SI (20)-(38).
Setting [6] is: CB1 agonists, Table S8, ref SI (1)-(19).
The mark [7] stands for this setting: CHO-K1 membranes, WIN 55,212-2 (3 μM) as stimulating ligand, read-out: CB1 inhibition pIC50 (converted).
[8] abbreviates: [3H]CP-55,940 displacement, membranes of Chem-1 cells expressing human CB1, read-out: pKi ± SEM (converted).
[9] abbreviates: read-out: CB1 inhibition IC50 (μM, 95% CI).

T1 sequence (P21554 whole entry): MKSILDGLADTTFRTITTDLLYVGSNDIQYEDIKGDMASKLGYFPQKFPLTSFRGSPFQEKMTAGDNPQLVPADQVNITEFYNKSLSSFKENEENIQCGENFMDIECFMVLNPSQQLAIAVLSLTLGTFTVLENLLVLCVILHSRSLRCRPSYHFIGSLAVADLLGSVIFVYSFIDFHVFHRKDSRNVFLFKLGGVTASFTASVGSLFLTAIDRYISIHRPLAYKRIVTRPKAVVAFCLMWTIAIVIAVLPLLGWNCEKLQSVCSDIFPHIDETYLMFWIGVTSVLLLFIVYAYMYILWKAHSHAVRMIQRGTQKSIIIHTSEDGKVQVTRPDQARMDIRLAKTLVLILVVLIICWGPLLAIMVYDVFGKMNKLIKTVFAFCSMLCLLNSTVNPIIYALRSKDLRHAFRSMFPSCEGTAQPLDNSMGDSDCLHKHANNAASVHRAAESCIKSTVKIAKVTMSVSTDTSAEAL

As for `CCc1c(C(=O)NN2CCCCC2)nn(-c2ccc(Cl)cc2Cl)c1-c1ccc(Br)cc1` [Surinabant], the Ki at human CB1 (setting [5]) was 3.5 nM.

Consider `CCCCCCC(C)(C)c1cc(O)c2c(c1)OC(C)(C)[C@@H]1CC=C(CO)C[C@@H]21` [HU-210], for which the Ki at human CB1 (setting [6]) was 0.06 nM.

Regarding `CCCCCCC(C)(C)c1cc(O)c2c(c1)OC(C)(C)[C@@H]1CC=C(C(=O)O)C[C@@H]21` [Ajulemic acid], the Ki at human CB1 (setting [6]) was 5.7 nM.

`CC(C)N1CCOc2c(nn(-c3ccccc3Cl)c2-c2ccc(Cl)cc2)C1=O` [CHEMBL482741]: the Ki on human CB1 (setting [5]) was 1.3 nM.

With `COc1ccccc1C(CCNC(C)c1ccc(Cl)cc1)c1ccc(OC(C)C)cc1` (stereo not drawn) [Compound 34], the intrinsic activity entry at human CB1 receptor [1] was “antagonists”. In addition, the IC50 at human CB1 receptor [2] (setting [7]) was 3.72 µM. Moreover, the Ki on human CB1 receptor [3] (setting [8]) was 2.69 µM.

On to `Cc1c(C(=O)NN2CCS(=O)(=O)CC2)nn(-c2ccc(Cl)cc2Cl)c1-c1ccc(C#CCCC#N)cc1` [AM-6545], for which, at human CB1 (setting [5]), the Ki was 1.7 nM.

Take `CCCCC/C=C\C/C=C\C/C=C\C/C=C\CCCC(=O)NCCCl` [ACEA]: at human CB1 (setting [6]), the Ki is 5.3 nM.

For `Cc1c(C(=O)NN2CCCCC2)nn(-c2ccc(Cl)cc2Cl)c1-c1ccc(N)cc1` [CHEMBL349955], at human CB1 (setting [5]), the Ki was 81.5 nM.

For `CCCCCCn1cc(C(=O)c2cccc3ccccc23)cc1-c1ccccc1` [JWH-147], the Ki on human CB1 (setting [6]) is 11 nM.

As for `CCNC1(C(N)=O)CCN(c2cnc(-c3ccc(Cl)cc3)c(-c3ccc(Cl)cc3Cl)n2)CC1` [CHEMBL496293], the Ki at human CB1 (setting [5]) is 0.91 nM.

`CCCCCn1cc(C(=O)c2cccc3ccccc23)c2ccccc21` [JWH-018]: at human CB1 (setting [6]), the Ki is 9 nM.

`O=C(NCc1ccc(F)cc1)c1ccc(S(=O)(=O)n2cc(N3CCCCC3)c3ccccc32)cc1` [PipISB]: at human CB1 (setting [5]), the Ki was 1.5 nM.

For `CC1=CC[C@@H]2[C@@H](C1)c1c(O)cc(C(C)(C)CCCCCCBr)cc1OC2(C)C` [AM-11542], the Ki at human CB1 (setting [6]) was 0.11 nM.

`COc1cc(O)c2c(=O)cc(-c3ccc(OC)c(-c4c(O)cc(O)c5c(=O)cc(-c6ccc(O)cc6)oc45)c3)oc2c1` [Compound 15, ginkgetin]: the intrinsic activity entry on human CB1 receptor [1] was “antagonists”. Moreover, the IC50 against human CB1 receptor [2] (CB1 inhibition IC50 (μM, 95% CI)) came out at 63 µM. The Ki at human CB1 receptor [3] (Ki (μM, 95% CI)) was 8.6 µM; at human CB1 receptor [3] (setting [8]), 8.71 µM.

Consider `O=C(c1ccc2c(c1)c1ccccc1n2CCCCCF)c1cccc2ccccc12` [EG-2201], for which, on human CB1 (setting [6]), the Ki is 22.4 nM.

Take `CN=C(NS(=O)(=O)c1ccc(Cl)cc1)N1C[C@H](c2ccccc2)C(c2ccc(Cl)cc2)=N1` [Ibipinabant]: the Ki on human CB1 (setting [5]) was 7.8 nM.

For the compound `Cc1c(C(=O)NN2CCCCC2)nn(-c2ccc(Cl)cc2Cl)c1-c1ccc(C#CCCO[N+](=O)[O-])cc1` [AM-6538], the Ki on human CB1 (setting [5]) is 3.4 nM.

As for `CC(C)(CCCCCCN=C=S)c1cc(O)c2c(c1)OC(C)(C)[C@@H]1CC[C@@H](CO)C[C@@H]21` [AM-841], the Ki at human CB1 (setting [6]) was 1.14 nM.

In the case of `CCOc1ccc(Cc2nc3cc(N(C)S(=O)(=O)c4cccs4)ccc3n2CC2CCCCC2)nc1` [AZ-11713908], the Ki on human CB1 (setting [6]) was 3 nM.

Take `CCCCCCC(C)(C)c1ccc([C@@H]2C[C@H](O)C[C@@H]3CC[C@H](CO)C[C@H]32)c(O)c1` [CP-55,244]: the Ki on human CB1 (setting [6]) is 1 nM.

Turning to `Cc1c(C(=O)NN2CCOCC2)nn(-c2ccc(Cl)cc2Cl)c1-c1ccc(I)cc1` [AM-281], the Ki on human CB1 (setting [5]) was 12 nM.

As to `COc1ccc(-c2cc(-c3ccccc3)cc(-c3ccccc3O)n2)c(OC)c1` [Compound 38], on human CB1 receptor [1], the intrinsic activity entry is given as “antagonists”. Further, the IC50 on human CB1 receptor [2] (setting [9]) came to 140 µM. In addition, the Ki at human CB1 receptor [3] (setting [8]) was 2.51 µM.

For the compound `OCCN1CCN(CC/C=C2/c3ccccc3Sc3ccc(C(F)(F)F)cc32)CC1` [Compound 33, Flupentixol], the Solubility in data set [4] (10% DMSO >> 40% PEG300 >> 5% Tween-80 >> 45% saline) is ≥ 2.5 mg/mL and ≥ 4.93 mM; in data set [4] (10% DMSO >> 90% (20% SBE-β-CD in saline)), ≥ 2.5 mg/mL and ≥ 4.93 mM; in data set [4] (10% DMSO >> 90% corn oil), ≥ 4.93 mM and ≥ 2.5 mg/mL. Further, the “Solubility in H2O” value in data set [4] (in vitro, need ultrasonic) was 100 mg/mL and 197.07 mM. Moreover, the “Solubility in DMSO” value in data set [4] (in vitro) is 33.33 mg/mL and 65.68 mM. For the same compound, the “pKi ± SEM” value on human CB1 receptor [3] ([3H]CP-55,940 displacement, membranes of Chem-1 cells expressing human CB1) came to 4.27 ± 0.04. Besides, the Ki on human CB1 receptor [3] (read-out: Ki (μM, 95% CI)) stood at 53 µM.

For the compound `CCCCCn1cc(C(=O)c2cccc3ccccc23)cc1-c1ccccc1F` [JWH-307], on human CB1 (setting [6]), the Ki was 7.7 nM.

`COc1cccc2c1ccn2CCNC(=O)[C@H](Cc1cn(C)c2ccccc12)NC(=O)OC(C)(C)C` [Compound 43]: the intrinsic activity entry at human CB1 receptor [1] is recorded as “antagonists”. On human CB1 receptor [2] (setting [7]), the IC50 was 1.86 µM. For the same compound, the Ki at human CB1 receptor [3] (Ki (μM, 95% CI)) was 6.6 µM.

`COc1cc(-c2c3cn[nH]c3nc3c2oc2c(O)c(O)ccc23)ccc1OCc1ccc(C(C)C)cc1` [Compound 30]: the intrinsic activity entry at human CB1 receptor [1] is given as “mixed CB1 partial agonist/antagonist”. Besides, the IC50 on human CB1 receptor [2] (setting [7]) was 2.09 µM. Also, on human CB1 receptor [2] (CHO-K1 membranes, read-out: CB1 stimulation Emax (%)), the Emax was determined as 126 ± 5%. In addition, on human CB1 receptor [2] (CHO-K1 membranes, read-out: CB1 stimulation pEC50 (converted)), the EC50 was 417 nM. Also, the Ki was 0.8 µM at human CB1 receptor [3] (Ki (μM, 95% CI)) and 0.851 µM at human CB1 receptor [3] (setting [8]).

With `O=S(=O)(CCCC(F)(F)F)Oc1cccc(Oc2cccc3c2C[C@H](CO)C3)c1` [BAY 38-7271], at human CB1 (setting [6]), the Ki was 2.91 nM.

Regarding `Cc1nc2c(-c3ccc(Cl)cc3)n(-c3ccccc3Cl)nc2c(=O)n1CC(F)(F)F` [CHEMBL201602], the Ki at human CB1 (setting [5]) is 0.6 nM.

As to `COc1ccc([C@@H](CC(=O)NCc2cccc3[nH]ccc23)c2cc3c(cc2O)OCO3)cc1` [Compound 32], the intrinsic activity entry on human CB1 receptor [1] was “antagonists”. Further, the results for the IC50 at human CB1 receptor [2] (setting [7]) and at human CB1 receptor [2] (setting [9]) were 33.1 µM and 40 µM, respectively. Also, the Ki on human CB1 receptor [3] (Ki (μM, 95% CI)) is 6.8 µM; at human CB1 receptor [3] (setting [8]), 6.31 µM.

With `CS(=O)(=O)N(c1cc(F)cc(F)c1)C1CN(C(c2ccc(Cl)cc2)c2ccc(Cl)cc2)C1` [Drinabant], the Ki at human CB1 (setting [5]) is 11 nM.

With `C[C@H](NC(=O)C(C)(C)Oc1ccc(C(F)(F)F)cn1)[C@@H](Cc1ccc(Cl)cc1)c1cccc(C#N)c1` [Taranabant], the Ki at human CB1 (setting [5]) was 0.13 nM.

As for `CC(C)[C@H](N=C(NS(=O)(=O)c1ccc(Cl)cc1)N1C[C@H](c2ccccc2)C(c2ccc(Cl)cc2)=N1)C(N)=O` [JD-5037], at human CB1 (setting [5]), the Ki is 0.35 nM.

As for `CC1=CC[C@@H]2[C@@H](C1)c1c(O)cc(C34CC5CC(CC(C5)C3)C4)cc1OC2(C)C` [AM-411], at human CB1 (setting [6]), the Ki was 6.8 nM.

As to `CC1(C)C(C(=O)c2cn(CCCCCF)c3ccccc23)C1(C)C` [XLR-11], the Ki on human CB1 (setting [6]) was 24 nM.

For the compound `COC(=O)[C@@H](NC(=O)c1ccc2c(c1)c1ccccc1n2CC1CCCCC1)C(C)(C)C` [MDMB-CHMCZCA], the Ki at human CB1 (setting [6]) is 5.75 nM.

In the case of `CCNC1(C(N)=O)CN(c2cnc(-c3ccc(C(F)(F)F)cc3)c(-c3ccnc(Cl)c3)n2)C1` [CHEMBL498783], the Ki on human CB1 (setting [5]) is 1.2 nM.

`C/C(N)=N\C(=N/S(=O)(=O)c1ccc(C(F)(F)F)cc1)N1C[C@H](c2ccccc2)C(c2ccc(Cl)cc2)=N1` [MRI-1867]: the Ki at human CB1 (setting [5]) was 2.3 nM.

As to `CCCCC/C=C\C/C=C\C/C=C\C/C=C\CCCCOC(CO)CO` [Noladin ether], at human CB1 (setting [6]), the Ki was 25 nM.

Regarding `CCNC1(C(N)=O)CCN(c2cnc(-c3ccc(OCC)cc3)c(-c3ccccc3Cl)n2)CC1` [CHEMBL495891], the Ki on human CB1 (setting [5]) is 15 nM.

These data come from paper PMC9585589 (ACS Chemical Neuroscience, 2022).
